Values of other authors as cited in article PMC8198792, “Prediction of Anticancer Peptides with High Efficacy and Low Toxicity by Hybrid Model Based on 3D Structure of Peptides” (International Journal of Molecular Sciences, 2021).
Where two headings read alike, the source gives them in different places.

Experiments:
cancer cell lines = system: cancer cell lines; set-up: method as in 6 sources, ref CancerPPD [45] and SATPdb ||| ref CancerPPD/SATPdb ||| ref CancerPPD, SATPdb, Swissprot (PDB) ||| ref CancerPPD/SATPdb/Swissprot(PDB) ||| ref CancerPPD / SATPdb ||| ...; details: 0 = non-ACP, cited from earlier work
Text: Supplement ijms-22-05630-s001.zip/ACPs(seguence).xlsx, sheet "D1" | column: Activity || Supplement ijms-22-05630-s001.zip/ACPs(seguence).xlsx, sheet "D2" | column: Activity || Supplement ijms-22-05630-s001.zip/ACPs(seguence).xlsx, sheet "D3" | column: Activity || (+ 2 further places)

[1] = system: many types of cells, including non-cancer cells; details: toxic peptides dataset TD2; class label 1 (toxic, positive set) or 0 (non-toxic AMP, negative set); ref SATPdb; cited from earlier work
[2] = ACPs dataset D3 (sheet "D3"), label 1 = ACP, ref CancerPPD/SATPdb
[3] = ACPs dataset D4 (sheet "D4"), label 1 = ACP, ref CancerPPD / SATPdb
[4] = ACPs dataset D5, sheet "D5", label 1 = ACP, ref CancerPPD [45] and SATPdb
[5] = ACPs dataset D3 (supplement sheet "D3"), 1 = ACP, ref CancerPPD [45] and SATPdb

Sequence	Activity [1]	also measured
RWKIFKKIEKVGRNVRDGIIKAGPAVAVVGQAATVVK [satpdb12319]	0	Activity (cancer cell lines; [2]): 0; Activity (cancer cell lines; [3]): 0; Activity (cancer cell lines; [4]): 0
FLSTLWNAAKSIF [satpdb12345]	1	Activity (cancer cell lines; [2]): 0; Activity (cancer cell lines; [3]): 0; Activity (cancer cell lines; [4]): 0
AILTTLANWARKFL [satpdb12672]	0	Activity (cancer cell lines; [2]): 0; Activity (cancer cell lines; [3]): 0; Activity (cancer cell lines; [4]): 0
WRSLGRTLLRLSHALKPLARRSGW [satpdb10596]	0	Activity (cancer cell lines; [5]): 0; Activity (cancer cell lines; [3]): 0; Activity (cancer cell lines; [4]): 0
ILGAILPLVSGLLSNKL [satpdb12884]	0	Activity (cancer cell lines; [2]): 0; Activity (cancer cell lines; [3]): 0; Activity (cancer cell lines; [4]): 0
GLWSKIKDVAAAAGKAALGAVNEAL [satpdb12483]	0	Activity (cancer cell lines; [2]): 0; Activity (cancer cell lines; [3]): 0; Activity (cancer cell lines; [4]): 0
GMFTNMLKGIGKLAGQAALGAVKTLA [satpdb11616]	0	Activity (cancer cell lines; [5]): 0; Activity (cancer cell lines; [3]): 0; Activity (cancer cell lines; [4]): 0
FLSLIPHAINAVSAIAKHS [satpdb10076]	0	Activity (cancer cell lines; [5]): 0; Activity (cancer cell lines; [3]): 0; Activity (cancer cell lines; [4]): 0
GFGSLLGKALRLGANVL [satpdb12093]	0	Activity (cancer cell lines; [2]): 0; Activity (cancer cell lines; [3]): 0; Activity (cancer cell lines; [4]): 0
GLGSLVGNALRIGAKLL [satpdb15217]	0	–
GFKRIVQRIKDFLRNLV [satpdb10735]	0	–
LLGMIPLAISAISSLSKL [satpdb20037]	1	–
RRRPRPPYLPRPRPPPFFPPRLPPRIPPGFPPRFPPRFP [satpdb15417]	0	–
NILNTIINLAKKIL [satpdb16074]	0	–
FIGALLRPALKLLAGK [satpdb27126]	1	–
GLLDIVKKVVGAFGSL [satpdb12368]	0	–
GILDAIKAFANALG [satpdb15517]	0	–
GIGGVLLGAGKATLKGLAKVLAEKYAN [satpdb26873]	1	–
GLFDIVKKIAGHIVSSI [satpdb13076]	0	–
GLVTGLLKTAGKLLGDLFGSLTG [satpdb19701]	1	–
GALRGCWTKSYPPKPCK [satpdb24908]	1	–

Sequence	Activity [1]	also measured
GFRKFHKFWA [satpdb14908]	0	–
GVLSVIKNALPGIMRF [satpdb16950]	0	–
SLSRFLSFLKIVYPPAF [satpdb15130]	0	–
KILRGVSKKIMRTFLRRILTGKK [satpdb23198]	1	–
NFLGTLINLAKKIM [satpdb14927]	0	–
GLPVCGETCVGGTCNTPGCTCSWPVCTRN [satpdb19932]	1	–
GFGPAFHSVSNFAKKHKTA [satpdb16916]	0	–
FVQWFSKFLGRIL [satpdb16211]	1	–
GLLSFLPKVIGVIGHLIHPPS [satpdb15305]	0	–
GMASKAGSVLGKLAKVAIGAL [satpdb16457]	0	–
FLPVILPVIGKLLSGIL [satpdb17809]	1	–
IIGPVLGLVGKPLESLLE [satpdb17226]	0	–
LKLSPKTKDTLKKVLKGAIKGAIAIASMA [satpdb13200]	1	–
GVIIDTLKGAAKTVAAELLRKAHCKLTNSC [satpdb16783]	1	–
GLWQKIKNAAGDLASGIVEGIKS [satpdb17290]	0	–
RRIPRPILLPWRPPRPIPRPQPQPIPRWL [satpdb15488]	0	–
FIGLLISAGKAIHDLIRRRH [satpdb26817]	1	–
ILPWKWPWWPWRR [satpdb22480]	1	–
FIPLVSGLFSRLL [satpdb15094]	0	–
GVLDIFKDAAKQILAHAAEKQI [satpdb12665]	1	–
FFPIVGKRLYGLL [satpdb15392]	0	–
